Each block holds one compound with its values, some of them ahead of it. No end group written: not given here.
Columns and labels:
Format in all cases: in vivo, chick
chicks [1] = experiment: APP-antisense induced amnesia, passive avoidance task, strong training; conditions: for effect on APP-antisense induced amnesia (percent avoidance): FIG. 5
Description: Commercially obtained Ross Chunky eggs were incubated and hatched in brooders and held until 16±6 hours old. Chicks were placed in pairs in small aluminium pens. Following an equilibration period of an hour, the chicks were pretrained and trained essentially as described by Lossner and Rose (J. Neurochem. 41, 1357-1363 (1983), the contents of which are incorporated herein by reference). Pretraining involved three 10 s presentations of a small (2 mm diameter) white bead, at approximately 5 minute intervals. […] Two training techniques were used: “strong” and “weak” training. In both, 5 to 10 minutes after the last pre-training trial, chicks were trained by a 10 s presentation of a 4 mm diameter chrome bead, which had been dipped in the bitter-tasting methylanthranilate. Control chicks pecked at a water-coated or dry bead. In the “strong” version of the task, 100% methylanthranilate was used. In the “weak” version, 10% methylanthranilate was used. Chicks spontaneously pecked at the training or control beads within 20 s. Chicks that peck at the bitter bead evinced a disgust reaction and would not normally peck at a similar, but dry bead for some hours subsequently. At various times following training chicks were tested, by offering them a dry 4 mm diameter chrome bead, followed 10 minutes later by a small (2 mm diameter) white bead, each for 20 to 30 s. Animals were tested by an experimenter blind as to which treatment each chick had received. Chicks are considered to remember the task if they avoid the chrome bead at test but peck at the white bead (discriminate), and to have forgotten it if they peck at both beads. Recall is calculated as a percent avoidance score (percentage of chicks which avoid the chrome bead) and as a discrimination score (percentage of chicks which avoid the chrome but peck at the white bead). […]
Bilateral intracranial injections ([…]) of either saline, or solutions in saline of different peptides (0.5 to 5 μg/hemisphere) homologous to different regions of the external domain of human APP were injected intracerebrally into a specific brain region, known to be required for memory formation (the intermediate hyperstriatum ventrale) at different time-points pre- or post-training using a […] fitted with a plastic sleeve to allow a penetration of 3 mm. […] Correct placement was ensured by using a specially designed headholder described by Davis et al (Physiol. Behav. 22, 177-184 (1979), the contents of which are incorporated herein by reference) and was routinely visually monitored postmortem. […]

chicks [2] = experiment: Memory enhancement on weak training (10% methylanthranilate), passive avoidance task; conditions: for effect of differing doses on weak training (percent avoidance): 30 mins before training, RER 0.2, 1.0, 2.0 μg/hemisphere, Ac-RER 4.0, 6.0 μg/hemisphere
Description: (§1) Commercially obtained Ross Chunky eggs were incubated and hatched in brooders and held until 16±6 hours old. Chicks were placed in pairs in small aluminium pens. Following an equilibration period of an hour, the chicks were pretrained and trained essentially as described by Lossner and Rose (J. Neurochem. 41, 1357-1363 (1983), the contents of which are incorporated herein by reference). Pretraining involved three 10 s presentations of a small (2 mm diameter) white bead, at approximately 5 minute intervals. […] Two training techniques were used: “strong” and “weak” training. In both, 5 to 10 minutes after the last pre-training trial, chicks were trained by a 10 s presentation of a 4 mm diameter chrome bead, which had been dipped in the bitter-tasting methylanthranilate. Control chicks pecked at a water-coated or dry bead. In the “strong” version of the task, 100% methylanthranilate was used. In the “weak” version, 10% methylanthranilate was used. Chicks spontaneously pecked at the training or control beads within 20 s. Chicks that peck at the bitter bead evinced a disgust reaction and would not normally peck at a similar, but dry bead for some hours subsequently. At various times following training chicks were tested, by offering them a dry 4 mm diameter chrome bead, followed 10 minutes later by a small (2 mm diameter) white bead, each for 20 to 30 s. Animals were tested by an experimenter blind as to which treatment each chick had received. Chicks are considered to remember the task if they avoid the chrome bead at test but peck at the white bead (discriminate), and to have forgotten it if they peck at both beads. Recall is calculated as a percent avoidance score (percentage of chicks which avoid the chrome bead) and as a discrimination score (percentage of chicks which avoid the chrome but peck at the white bead). […] Each chick was trained and tested only once and differences between groups tested for statistical significance by g-test described by Sokal and Rohlf (Biometry: the Principles and Practice of Statistics in Biological Research (2nd edition), W H Freeman, New York (1981)), the contents of which are incorporated herein by reference. The validity of this particular training task used to assess memory formation is extensively discussed by Andrew (Neural and Behavioural Plasticity: the Use of the Domestic Chick as a Model, Oxford University Press, Oxford, UK (1991), the contents of which are incorporated herein by reference.
(§2) Thus the learning experience is not committed to long-term memory. Agents that are memory enhancers can thus be tested. A memory enhancing agent, administered to a chick trained on the weak learning task, produces an increase in retention—increased avoidance of the chrome bead—at 24 hours. That is, such memory enhancers help convert weak to strong learning by enabling the transition from shorter to longer-term memory.
Bilateral intracranial injections ([…]) of either saline, or solutions in saline of different peptides (0.5 to 5 μg/hemisphere) homologous to different regions of the external domain of human APP were injected intracerebrally into a specific brain region, known to be required for memory formation (the intermediate hyperstriatum ventrale) at different time-points pre- or post-training using a […] fitted with a plastic sleeve to allow a penetration of 3 mm. After completion of the injection, the needle was kept in place for 5 s. Correct placement was ensured by using a specially designed headholder described by Davis et al (Physiol. Behav. 22, 177-184 (1979), the contents of which are incorporated herein by reference) and was routinely visually monitored postmortem. Peptides or other substances were administered at various times either before or after the training protocol. Chicks were tested at different time points post-training as described above. […]

chicks [3] = experiment: anti-APP (mb22C11) induced amnesia, passive avoidance task; conditions: FIG. 4; mb22C11 30 minutes pretraining, peptide 5 minutes pretraining; memory tested 24 hours posttraining
Description: Commercially obtained Ross Chunky eggs were incubated and hatched in brooders and held until 16±6 hours old. Chicks were placed in pairs in small aluminium pens. Following an equilibration period of an hour, the chicks were pretrained and trained essentially as described by Lossner and Rose (J. Neurochem. 41, 1357-1363 (1983), the contents of which are incorporated herein by reference). Pretraining involved three 10 s presentations of a small (2 mm diameter) white bead, at approximately 5 minute intervals. […] Two training techniques were used: “strong” and “weak” training. In both, 5 to 10 minutes after the last pre-training trial, chicks were trained by a 10 s presentation of a 4 mm diameter chrome bead, which had been dipped in the bitter-tasting methylanthranilate. Control chicks pecked at a water-coated or dry bead. In the “strong” version of the task, 100% methylanthranilate was used. In the “weak” version, 10% methylanthranilate was used. Chicks spontaneously pecked at the training or control beads within 20 s. Chicks that peck at the bitter bead evinced a disgust reaction and would not normally peck at a similar, but dry bead for some hours subsequently. […] Recall is calculated as a percent avoidance score (percentage of chicks which avoid the chrome bead) and as a discrimination score (percentage of chicks which avoid the chrome but peck at the white bead). […]

chicks [4] = experiment: β-amyloid 12-28 induced amnesia, passive avoidance task, strong training
Description: as §1, §2
Bilateral intracranial injections ([…]) of either saline, or solutions in saline of different peptides (0.5 to 5 μg/hemisphere) homologous to different regions of the external domain of human APP were injected intracerebrally into a specific brain region, known to be required for memory formation (the intermediate hyperstriatum ventrale) at different time-points pre- or post-training using a […] fitted with a plastic sleeve to allow a penetration of 3 mm. After completion of the injection, the needle was kept in place for 5 s. Correct placement was ensured by using a specially designed headholder described by Davis et al (Physiol. Behav. 22, 177-184 (1979), the contents of which are incorporated herein by reference) and was routinely visually monitored postmortem. Peptides or other substances were administered at various times either before or after the training protocol. Chicks were tested at different time points post-training as described above.

[5] = AS oligodeoxynucleotide 12 hours pretraining, peptide 30 minutes pretraining, strong learning task
[6] = FIGS. 7-9, peptide 30 minutes pretraining, memory tested 24 hours posttraining
[7] = FIG. 10, 2 μg/hemisphere 20 mins prior to training after β-amyloid 12-28 (2 μg/hemisphere) 30 mins prior to training, measured 20 mins after administration

Compound: Arg-Ser-Ala-Glu-Arg (RSAER) [reference compound]
effect on APP-antisense induced amnesia (percent avoidance) (chicks [1]; [5]): absent

Compound: Arg-Glu-Arg-Met-Ser (RERMS)
effect on weak training (percent avoidance) (chicks [2]; [6]): enhance memory at 24 hours
effect on anti-APP induced amnesia (percent avoidance) (chicks [3]): will prevent antibody induced memory loss
effect on APP-antisense induced amnesia (percent avoidance) (chicks [1]; [5]): avoided to a substantial extent
effect on β-amyloid 12-28 induced amnesia (percent avoidance) (chicks [4]; FIG. 3, β-amyloid 12-28 30 minutes pretraining, peptide 20 minutes pretraining, memory tested 24 hours posttraining): memory retention is restored

stability after administration (indicated by FIG. 10 results) (chicks [4]; FIG. 10, inferred from memory-restorative effect compared with RER): more stable after administration
Compound: CC(=O)NC(CCCNC(=N)N)C(=O)NC(CCC(=O)O)C(=O)OC(CCCNC(=N)N)C(=O)O (centres unmarked) [Ac-RER]
effect on weak training (percent avoidance) (chicks [2]; FIG. 11, 2 μg/hemisphere 30 mins before training): has the effect of improving the memory of weakly trained chicks
effect on weak training (percent avoidance) (chicks [2]; FIG. 11, 2 μg/hemisphere 60 mins before training): still significant, although less than 30 minutes after administration
effect of differing doses on weak training (percent avoidance) (chicks [2]; FIG. 12): have the effect of improving the memory of weakly-trained chicks
dose required to obtain a comparable effect on weak training (chicks [2]; FIG. 12, Ac-RER compared with RER): higher doses of Ac-RER than of RER
stability after administration (indicated by FIG. 12 results) (chicks [2]; FIG. 12, inferred from the doses required): more stable after administration than RER
effect on β-amyloid 12-28 induced amnesia (percent avoidance) (chicks [4]; [7]): less than that of RER
effect on β-amyloid 12-28 induced amnesia (percent avoidance) (chicks [4]; FIG. 10, 2 μg/hemisphere 20 mins prior to training after β-amyloid 12-28 (2 μg/hemisphere) 30 mins prior to training, measured 20 mins after administration, listed as AC-RER): have the effect of restoring memory
effect on β-amyloid 12-28 induced amnesia (percent avoidance) (chicks [4]; FIG. 13, 4 μg/hemisphere 60, 20 or 30 mins prior to training (before, after or together with β-amyloid 12-28 2 μg/hemisphere)): has the effect of restoring memory

Compound: AS oligodeoxynucleotide: 16-mer end-protected phosphodiester oligodeoxynucleotide 5′-CCC GAG GAC TGA GCC A-3′ (SEQ ID No: 21) against APP mRNA, antisense form (antisense CCCGAGGACTGAGCCA; end-protected phosphodiester DNA, nucleotides 2 and 13 modified, nature not given here) [reference compound]
effect of oligodeoxynucleotide on memory (percent avoidance) (chicks [1]; FIG. 5a, 0.6 to 1.0 μg in 2 μl, 12 hours pretraining, strong learning task): had a significant effect of memory loss

Compound: AKERLEAKHRERMSQVM [APP 319-335]
effect on weak training (percent avoidance) (chicks [2]; [6]): enhance memory at 24 hours
effect on APP-antisense induced amnesia (percent avoidance: total avoidance and discrimination) (chicks [1]; FIG. 6, AS oligodeoxynucleotide 12 hours pretraining, peptide 30 minutes pretraining, tested 30 minutes posttraining): can prevent antisense induced memory loss

Compound: Arg-Glu-Arg (RER)
effect of differing doses on weak training (percent avoidance) (chicks [2]; FIG. 12): have the effect of improving the memory of weakly-trained chicks
effect on weak training (percent avoidance) (chicks [2]; [6]): enhances memory at 24 hours
effect on β-amyloid 12-28 induced amnesia (percent avoidance) (chicks [4]; [7]): have the effect of restoring memory

From US7622446B2, “Polypeptides, derivatives and uses thereof” (The Open University, priority 2001, dated 2009)
